Measured values from patent US20250154193A1, “STEROID COMPOUND, AND PREPARATION METHOD THEREFOR AND APPLICATION THEREOF” (CHOLESGEN (SHANGHAI) CO., LTD., priority 2022, published 2025).

Experiments:
liver organoids [1] = test: Nile Red and αSMA immunofluorescence staining of fatty liver organoids; assay type: cell-based, mice; details: mouse fatty liver organoids, 1 and 3 μM, 72 hours
Protocol: (§1) C57BL/6N mice were fed with fatty liver-inducing diet (TrophicDiet, TP2630052A, containing 10.2% kcal protein, 37.3% kcal carbohydrate, and 52.6% kcal fat) and fructose-containing drinking water (23.1 g of fructose and 18.9 g of dextrose were dissolved in 1 L of water, then filtered and sterilized) for a total of 16 weeks starting at 12 weeks of age to generate a fatty liver model. To generate fatty liver organoids, liver tissues from mice with fatty liver were minced and digested in digestion buffer at 37° C. for 30 to 60 minutes. The digestion buffer included DMEM/F-12 (Cytiva, SH30023.01), 2.5 mg/mL collagenase D (Roche, COLLD-RO), and 0.1 mg/mL DNaseI (Sigma-Aldrich, DN25). Isolated single hepatocytes were filtered through a 70 μm filter membrane and washed once. Cells were collected by centrifugation, and resuspended in a mixture of culture medium and basement membrane extract (BME) (R&D Systems, 3533-010-02) at a ratio of 1:3. […]
(§2) In FIGS. 35 and 36, data are represented as mean±standard deviation. P values were calculated using one-way ANOVA; ns indicates no statistical difference; * indicates P<0.05; ** indicates P<0.01; *** indicates P<0.001. In FIGS. 47 and 53, quantitative analysis was performed using ImageJ software. […] P values were calculated using one-way ANOVA; * indicates P<0.05; ** indicates P<0.01; *** indicates P<0.001.

liver organoids [2] = test: Real-time quantitative PCR of lipogenesis- and fibrosis-related genes in fatty liver organoids; assay type: cell-based, mice; details: mouse fatty liver organoids, 1 and 3 μM, 72 hours, qPCR
Description: Liver samples or liver organoid samples were homogenized in TRI Reagent (T9424, Sigma), and total RNA was extracted according to the manufacturer's instructions. Equal amounts of RNA template were used to synthesize cDNA with oligo dT primers and MLV reverse transcriptase (Promega). Quantitative data for genes were collected using the Bio-Rad CFX96 real-time PCR system, and the relative amount of gene mRNA was quantified using the comparative CT method.
as §1, with “DN25).” for “DN25). Isolated single hepatocytes were filtered through a 70 μm filter membrane and washed once. Cells were collected by centrifugation, and resuspended in a mixture of culture medium and basement membrane extract (BME) (R&D Systems, 3533-010-02) at a ratio of 1:3.”
To distinguish whether the inhibitory effect of 25-hydroxylanosterol is directly based on its effect on the liver or a systemic effect, we utilized 3D liver organoids as an in vitro model for the study of fatty liver to analyze the effect of 25-hydroxylanosterol on lipogenesis and fibrosis marker expression in liver organoids. […] RNA from the organoids was collected and analyzed for the differential expression of lipogenesis-related genes (Hmgcs, Hmgcr, SCD1, and FASN) and fibrosis markers (αSMA and Colla1) using fluorescent real-time quantitative PCR.
as §2

C[C@H](CCCC(C)(C)O)[C@H]1CC[C@@]2(C)C3=C(CC[C@]12C)[C@@]1(C)CC[C@H](O)C(C)(C)[C@@H]1CC3 [compound 68, (1R,3aR,5aR,7S,9aS,11aR)-1-[(2R)-6-hydroxy-6-methylheptan-2-yl]-3a,6,6,9a,11a-pentamethyl-2,3,3a,4,5,5a,6,7,8,9,9a,10,11,11a-tetradecahydro-1H-cyclopenta[1,2-a]phenanthren-7-ol]
expression of fibrosis marker protein αSMA (immunofluorescence staining) (liver organoids [1]): decreasing | lipid accumulation in organoids (Nile Red staining) (liver organoids [1]): reduced | expression levels of fibrosis-related genes (Col1a1 and αSMA) (liver organoids [2]): significantly inhibited | expression levels of lipogenesis-related genes (Hmgcs, Hmgcr, SCD1, and FASN) (liver organoids [2]): significantly inhibited
